Measured values taken from patent publication US11013780B2, “Methods of treating female infertility” (Myovant Sciences GmbH, priority 2016, dated 2021).
Where no end group is shown, it is not given here.

What was measured:
serum LH, FSH, E2 = assay: Physiological effects in healthy women, follicular phase (Example 11, Part 1); type: in vivo, human; conditions: 9.6 nmol/kg SC
Description: The study population included healthy women, aged 18-35 years, with BMI 18-30 kg/m^2, no medical problems and not taking any medications or hormonal contraception. Three healthy, female subjects were selected and randomized and received a single dose of each of the three study regimens noted below (one regimen per study period). All women were scheduled for three Study D1 Visits (each during the follicular phase of the menstrual cycle). […] The order in which a subject receives one of the three study regimens was determined by a randomization matrix.
The study included a screening visit to collect participants' full medical history and to conduct a general medical examination and blood testing. The three study periods each consisted of three planned study visits per study period (excluding screening and follow-up). Study Day 1 (SD1) Visit of each study period occurred during the follicular phase of the menstrual cycle (days 1-4), and the SD2 and SD3 Visits occurred at 24- and 48-hrs post-dose, respectively (FIG. 14). A follow-up phone call happened 7-10 days post-dose in each study period.
Immediately following dosing, serum LH, FSH, E2 (oestradiol), P (progesterone) and SHBG levels were assessed at 30 minute intervals for up to 14 hours (FIGS. 15A-15C, 16A-16C, 17, 18, 19, 20A, and 20B). These PD variables were also assessed at 24 (Study Day 2) and 48 hours (Study Day 3) post-dose. SHBG changes less rapidly and was measured every 3 hours to reduce blood volume.
Up to 3 mL of blood volume were required for measurement of serum reproductive hormone levels (LH, FSH, E2 and P). Blood samples for serum analysis were collected in plain Vacutainer tubes (Beckton Dickson, Franklin Lakes, N.J., USA), and spun after clotting (˜1 hour at room temperature) for 10 minutes at 3000 rpm. Serum was then stored in a locked freezer at −20° C. until assay of serum reproductive hormone levels.

LH surge = conditions: trigger in ART protocol with GnRH antagonist and FSH; cited from earlier work
[1] = in vivo; cited from earlier work

kisspeptin-54: previously shown to be clinically effective as a trigger for oocyte maturation in IVF studies (GTSLSPPPESSGSPQQPGLSAPHSRQIPAPQGAVLVQREKDLPNYNWNSFGLRF; ends and bridges not checked; UniProt Q15726 68-121, looked up)
Time of LH peak after administration (serum LH, FSH, E2): 4 to 6 h | Time by which the LH surge resolved (LH surge): ≤ 36 h | half-life [1]: 32 min
